# Columns and labels:
# Assay in all cases: KINOMEscan competition binding
# Settings in all cases: compound 10.0 µM
# AKT3 (human) = AKT3 (human) (UniProt Q9Y243)
# [1] = test system: BRAF (human), P15056 [V600E]
# BRSK2 (human) = BRSK2 (human) (UniProt Q8IWQ3)
# CAMK1G (human) = CAMK1G (human) (UniProt Q96NX5)
# CAMK2A (human) = CAMK2A (human) (UniProt Q9UQM7)
# CDK9 (human) = CDK9 (human) (UniProt P50750)
# CHUK (human) = CHUK (human) (UniProt O15111)
# CLK3 (human) = CLK3 (human) (UniProt P49761)
# Chain of CLK3 (human) (P49761 whole entry, looked up): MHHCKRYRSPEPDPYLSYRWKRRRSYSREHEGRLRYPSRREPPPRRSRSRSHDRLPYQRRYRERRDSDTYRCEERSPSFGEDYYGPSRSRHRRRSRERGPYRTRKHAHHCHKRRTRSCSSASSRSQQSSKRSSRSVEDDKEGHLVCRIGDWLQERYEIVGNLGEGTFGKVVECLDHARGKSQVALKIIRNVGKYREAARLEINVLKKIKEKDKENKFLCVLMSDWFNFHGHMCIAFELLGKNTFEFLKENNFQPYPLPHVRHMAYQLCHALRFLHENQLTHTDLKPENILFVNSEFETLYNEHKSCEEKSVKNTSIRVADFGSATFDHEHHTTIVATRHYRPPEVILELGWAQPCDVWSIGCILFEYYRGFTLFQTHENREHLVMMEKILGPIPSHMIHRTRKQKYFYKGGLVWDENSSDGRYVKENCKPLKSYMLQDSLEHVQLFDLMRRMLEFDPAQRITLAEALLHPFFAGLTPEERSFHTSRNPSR
# EPHB3 (human) = EPHB3 (human) (UniProt P54753)
# ERBB3 (human) = ERBB3 (human) (UniProt P21860)
# FGFR4 (human) = FGFR4 (human) (UniProt P22455)
# [2] = test system: FLT3 (human), P36888 [D835Y]
# [3] = test system: FLT3 (human), P36888 [N841I]
# FRK (human) = FRK (human) (UniProt P42685)
# GAK (human) = GAK (human) (UniProt O14976)
# MAP2K2 (human) = MAP2K2 (human) (UniProt P36507)
# Chain of MAP2K2 (human) (P36507 whole entry, looked up): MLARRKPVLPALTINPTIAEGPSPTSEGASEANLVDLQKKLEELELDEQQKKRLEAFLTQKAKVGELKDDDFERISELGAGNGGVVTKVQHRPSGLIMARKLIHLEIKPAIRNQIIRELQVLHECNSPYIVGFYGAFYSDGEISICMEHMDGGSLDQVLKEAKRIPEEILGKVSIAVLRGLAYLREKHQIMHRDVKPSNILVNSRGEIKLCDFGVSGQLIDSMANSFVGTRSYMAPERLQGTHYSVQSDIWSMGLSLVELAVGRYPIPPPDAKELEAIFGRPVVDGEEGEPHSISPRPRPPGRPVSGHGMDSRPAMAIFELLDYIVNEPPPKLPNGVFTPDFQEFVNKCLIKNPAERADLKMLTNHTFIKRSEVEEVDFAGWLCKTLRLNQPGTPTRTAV
# MAP2K6 (human) = MAP2K6 (human) (UniProt P52564)
# MAP2K7 (human) = MAP2K7 (human) (UniProt O14733)
# MAP4K5 (human) = MAP4K5 (human) (UniProt Q9Y4K4)
# Chain of MAP4K5 (human) (Q9Y4K4 whole entry, looked up): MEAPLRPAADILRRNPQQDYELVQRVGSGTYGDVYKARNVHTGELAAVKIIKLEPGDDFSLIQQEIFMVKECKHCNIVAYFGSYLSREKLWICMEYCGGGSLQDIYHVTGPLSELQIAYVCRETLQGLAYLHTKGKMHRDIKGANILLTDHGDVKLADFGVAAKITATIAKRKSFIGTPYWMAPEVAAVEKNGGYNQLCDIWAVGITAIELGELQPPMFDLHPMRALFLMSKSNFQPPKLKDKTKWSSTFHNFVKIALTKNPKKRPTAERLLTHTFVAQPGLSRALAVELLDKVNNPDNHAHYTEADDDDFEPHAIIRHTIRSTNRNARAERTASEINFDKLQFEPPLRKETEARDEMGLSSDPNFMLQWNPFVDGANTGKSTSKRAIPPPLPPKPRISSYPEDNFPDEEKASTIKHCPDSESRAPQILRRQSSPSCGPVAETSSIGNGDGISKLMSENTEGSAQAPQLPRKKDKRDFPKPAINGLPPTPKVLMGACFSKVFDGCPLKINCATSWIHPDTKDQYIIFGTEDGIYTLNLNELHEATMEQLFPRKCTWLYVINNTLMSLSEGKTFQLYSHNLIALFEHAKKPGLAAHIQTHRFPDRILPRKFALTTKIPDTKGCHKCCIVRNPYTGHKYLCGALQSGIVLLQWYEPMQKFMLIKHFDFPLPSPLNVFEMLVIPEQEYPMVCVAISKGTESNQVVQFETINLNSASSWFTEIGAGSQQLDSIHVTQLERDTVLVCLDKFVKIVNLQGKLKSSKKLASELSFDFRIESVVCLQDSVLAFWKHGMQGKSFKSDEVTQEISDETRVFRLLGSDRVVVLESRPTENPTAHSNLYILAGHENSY
# MAPK15 (human) = MAPK15 (human) (UniProt Q8TD08)
# MAPKAPK5 (human) = MAPKAPK5 (human) (UniProt Q8IW41)
# Chain of MAPKAPK5 (human) (Q8IW41 whole entry, looked up): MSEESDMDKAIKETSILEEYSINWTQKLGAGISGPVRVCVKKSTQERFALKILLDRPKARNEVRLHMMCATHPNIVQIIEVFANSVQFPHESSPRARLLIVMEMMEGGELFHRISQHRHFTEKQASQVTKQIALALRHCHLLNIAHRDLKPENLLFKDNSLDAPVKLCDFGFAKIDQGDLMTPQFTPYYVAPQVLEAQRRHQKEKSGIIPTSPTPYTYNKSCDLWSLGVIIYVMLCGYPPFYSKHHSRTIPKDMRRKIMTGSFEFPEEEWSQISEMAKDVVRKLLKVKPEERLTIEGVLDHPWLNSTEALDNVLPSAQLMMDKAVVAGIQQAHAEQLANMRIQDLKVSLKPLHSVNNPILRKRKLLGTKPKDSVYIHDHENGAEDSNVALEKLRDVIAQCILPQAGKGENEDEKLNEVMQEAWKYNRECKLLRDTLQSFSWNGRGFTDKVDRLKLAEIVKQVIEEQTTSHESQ
# MATK (human) = MATK (human) (UniProt P42679)
# MET (human) = MET (human) (UniProt P08581)
# MTOR (human) = MTOR (human) (UniProt P42345)
# MYO3A (human) = MYO3A (human) (UniProt Q8NEV4)
# NEK4 (human) = NEK4 (human) (UniProt P51957)
# NEK9 (human) = NEK9 (human) (UniProt Q8TD19)
# OXSR1 (human) = OXSR1 (human) (UniProt O95747)
# PDGFRA (human) = PDGFRA (human) (UniProt P16234)
# PRKD2 (human) = PRKD2 (human) (UniProt Q9BZL6)
# PRPF4B (human) = PRPF4B (human) (UniProt Q13523)
# RPS6KA5 KD1 (human) = RPS6KA5 KD1 (human) (UniProt O75582)
# SGK3 (human) = SGK3 (human) (UniProt Q96BR1)
# SNRK (human) = SNRK (human) (UniProt Q9NRH2)
# STK25 (human) = STK25 (human) (UniProt O00506)
# Chain of STK25 (human) (O00506 whole entry, looked up): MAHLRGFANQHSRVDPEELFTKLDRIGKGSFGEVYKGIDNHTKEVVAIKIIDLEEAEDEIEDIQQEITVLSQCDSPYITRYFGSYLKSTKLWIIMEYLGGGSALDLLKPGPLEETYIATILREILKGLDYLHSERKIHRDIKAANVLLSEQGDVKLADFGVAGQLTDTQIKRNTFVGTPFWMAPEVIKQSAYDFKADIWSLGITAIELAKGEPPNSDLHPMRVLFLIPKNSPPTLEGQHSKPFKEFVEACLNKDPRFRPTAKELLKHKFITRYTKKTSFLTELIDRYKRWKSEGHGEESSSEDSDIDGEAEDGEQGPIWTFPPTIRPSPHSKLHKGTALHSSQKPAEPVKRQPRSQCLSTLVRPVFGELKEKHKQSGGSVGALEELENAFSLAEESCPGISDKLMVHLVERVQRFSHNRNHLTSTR
# STK33 (human) = STK33 (human) (UniProt Q9BYT3)
# Chain of STK33 (human) (Q9BYT3 whole entry, looked up): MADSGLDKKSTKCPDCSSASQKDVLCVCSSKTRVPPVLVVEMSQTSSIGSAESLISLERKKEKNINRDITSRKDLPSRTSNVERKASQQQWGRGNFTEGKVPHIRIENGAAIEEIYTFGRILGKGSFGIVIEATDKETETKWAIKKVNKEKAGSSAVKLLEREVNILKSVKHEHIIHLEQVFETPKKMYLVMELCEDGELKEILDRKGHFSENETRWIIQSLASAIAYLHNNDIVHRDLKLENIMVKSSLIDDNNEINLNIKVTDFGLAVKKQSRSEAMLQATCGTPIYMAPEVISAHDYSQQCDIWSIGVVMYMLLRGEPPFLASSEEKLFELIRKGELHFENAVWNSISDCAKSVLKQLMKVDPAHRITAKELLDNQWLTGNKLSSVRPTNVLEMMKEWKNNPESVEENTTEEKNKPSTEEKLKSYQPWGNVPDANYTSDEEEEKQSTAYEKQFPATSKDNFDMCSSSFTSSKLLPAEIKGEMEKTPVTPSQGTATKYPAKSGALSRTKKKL
# TESK1 (human) = TESK1 (human) (UniProt Q15569)
# TRPM6 (human) = TRPM6 (human) (UniProt Q9BX84)
# WEE2 (human) = WEE2 (human) (UniProt P0C1S8)
# CSNK1A1L (human) = CSNK1A1L (human) (UniProt Q8N752)
# [4] = test system: PIK3CA (human), P42336 [C420R]
# Chain of CAMK1G (human) (Q96NX5 whole entry, looked up): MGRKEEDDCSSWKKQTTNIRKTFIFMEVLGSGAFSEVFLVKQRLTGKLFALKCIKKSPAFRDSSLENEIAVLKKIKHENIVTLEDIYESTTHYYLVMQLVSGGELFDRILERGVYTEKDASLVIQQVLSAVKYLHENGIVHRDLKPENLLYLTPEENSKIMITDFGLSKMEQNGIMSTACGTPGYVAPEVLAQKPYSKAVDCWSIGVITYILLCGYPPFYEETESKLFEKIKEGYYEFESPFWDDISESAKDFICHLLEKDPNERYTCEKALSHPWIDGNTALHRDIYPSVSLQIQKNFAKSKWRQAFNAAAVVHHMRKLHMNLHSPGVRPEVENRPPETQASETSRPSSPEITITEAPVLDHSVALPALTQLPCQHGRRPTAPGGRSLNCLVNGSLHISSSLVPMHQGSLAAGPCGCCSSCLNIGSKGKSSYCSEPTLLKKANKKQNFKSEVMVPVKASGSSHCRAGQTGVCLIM
# Chain of BRSK2 (human) (Q8IWQ3 whole entry, looked up): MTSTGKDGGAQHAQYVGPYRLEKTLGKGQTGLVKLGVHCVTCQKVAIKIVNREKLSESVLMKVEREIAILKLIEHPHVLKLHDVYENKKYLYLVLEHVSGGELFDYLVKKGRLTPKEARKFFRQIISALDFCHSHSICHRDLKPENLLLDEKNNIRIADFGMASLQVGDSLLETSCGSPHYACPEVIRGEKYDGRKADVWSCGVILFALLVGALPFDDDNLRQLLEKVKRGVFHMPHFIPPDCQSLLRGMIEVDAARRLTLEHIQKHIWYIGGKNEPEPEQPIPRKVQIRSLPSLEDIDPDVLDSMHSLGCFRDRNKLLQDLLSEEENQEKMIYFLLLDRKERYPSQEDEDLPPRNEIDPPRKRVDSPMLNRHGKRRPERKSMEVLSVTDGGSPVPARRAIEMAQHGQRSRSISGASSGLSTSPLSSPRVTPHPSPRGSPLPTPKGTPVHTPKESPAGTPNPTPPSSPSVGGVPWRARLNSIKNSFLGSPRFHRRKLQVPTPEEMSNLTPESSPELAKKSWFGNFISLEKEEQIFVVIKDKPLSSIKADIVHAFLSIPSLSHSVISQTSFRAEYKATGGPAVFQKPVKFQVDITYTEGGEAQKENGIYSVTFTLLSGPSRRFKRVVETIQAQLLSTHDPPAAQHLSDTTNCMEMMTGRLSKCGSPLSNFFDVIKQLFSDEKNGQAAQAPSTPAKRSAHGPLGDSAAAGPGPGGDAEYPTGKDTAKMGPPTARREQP
# Chain of CAMK2A (human) (Q9UQM7 whole entry, looked up): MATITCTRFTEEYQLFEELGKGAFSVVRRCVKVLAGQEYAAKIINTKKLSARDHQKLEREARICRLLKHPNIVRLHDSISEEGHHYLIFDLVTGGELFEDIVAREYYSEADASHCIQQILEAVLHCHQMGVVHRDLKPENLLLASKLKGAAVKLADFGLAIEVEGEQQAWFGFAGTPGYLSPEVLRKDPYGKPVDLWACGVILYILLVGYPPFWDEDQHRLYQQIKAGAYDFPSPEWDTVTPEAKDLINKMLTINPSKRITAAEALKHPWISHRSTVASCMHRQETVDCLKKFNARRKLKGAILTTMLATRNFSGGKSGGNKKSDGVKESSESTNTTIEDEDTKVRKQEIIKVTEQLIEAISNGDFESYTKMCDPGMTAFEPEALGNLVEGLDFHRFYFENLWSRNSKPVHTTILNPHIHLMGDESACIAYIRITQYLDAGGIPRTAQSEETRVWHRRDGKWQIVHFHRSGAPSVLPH
compound,measurement,setting,value
CC(C)n1nc(-c2cc3cc(O)ccc3[nH]2)c2c(N)ncnc21,"kinase still bound, per cent of control",AKT3 (human),29%
same,"kinase still bound, per cent of control",[1],4.4%
same,"kinase still bound, per cent of control",BRSK2 (human),0.95%
same,"kinase still bound, per cent of control",CAMK1G (human),77%
same,"kinase still bound, per cent of control",CAMK2A (human),53%
same,per cent of control,CDK9 (human),96%
same,"kinase still bound, per cent of control",CHUK (human),41%
same,"kinase still bound, per cent of control",CLK3 (human),66%
same,"kinase still bound, per cent of control",EPHB3 (human),81%
same,"kinase still bound, per cent of control",ERBB3 (human),0%
same,"kinase still bound, per cent of control",FGFR4 (human),12%
same,"kinase still bound, per cent of control",[2],7%
same,"kinase still bound, per cent of control",[3],5%
same,"kinase still bound, per cent of control",FRK (human),12%
same,"kinase still bound, per cent of control",GAK (human),6.2%
same,"kinase still bound, per cent of control",MAP2K2 (human),0.4%
same,"kinase still bound, per cent of control",MAP2K6 (human),70%
same,"kinase still bound, per cent of control",MAP2K7 (human),75%
same,"kinase still bound, per cent of control",MAP4K5 (human),72%
same,"kinase still bound, per cent of control",MAPK15 (human),54%
same,"kinase still bound, per cent of control",MAPKAPK5 (human),86%
same,"kinase still bound, per cent of control",MATK (human),60%
same,"kinase still bound, per cent of control",MET (human),73%
same,"kinase still bound, per cent of control",MTOR (human),0%
same,"kinase still bound, per cent of control",MYO3A (human),12%
same,"kinase still bound, per cent of control",NEK4 (human),90%
same,"kinase still bound, per cent of control",NEK9 (human),100%
same,"kinase still bound, per cent of control",OXSR1 (human),80%
same,"kinase still bound, per cent of control",PDGFRA (human),2.2%
same,"kinase still bound, per cent of control",PRKD2 (human),100%
same,"kinase still bound, per cent of control",PRPF4B (human),90%
same,"kinase still bound, per cent of control",RPS6KA5 KD1 (human),100%
same,"kinase still bound, per cent of control",SGK3 (human),81%
same,"kinase still bound, per cent of control",SNRK (human),100%
same,"kinase still bound, per cent of control",STK25 (human),53%
same,"kinase still bound, per cent of control",STK33 (human),45%
same,"kinase still bound, per cent of control",TESK1 (human),17%
same,"kinase still bound, per cent of control",TRPM6 (human),70%
same,"kinase still bound, per cent of control",WEE2 (human),100%
CCC(=O)N1CCN(c2ccc(-n3c(=O)ccc4cnc5ccc(-c6cnc7ccccc7c6)cc5c43)cc2C(F)(F)F)CC1,"kinase still bound, per cent of control",AKT3 (human),77%
same,"kinase still bound, per cent of control",BRSK2 (human),76%
same,"kinase still bound, per cent of control",CAMK1G (human),74%
same,"kinase still bound, per cent of control",CAMK2A (human),93%
same,per cent of control,CDK9 (human),94%
same,"kinase still bound, per cent of control",CHUK (human),41%
same,"kinase still bound, per cent of control",CLK3 (human),43%
same,"kinase still bound, per cent of control",CSNK1A1L (human),81%
same,"kinase still bound, per cent of control",EPHB3 (human),85%
same,"kinase still bound, per cent of control",ERBB3 (human),44%
same,"kinase still bound, per cent of control",FGFR4 (human),21%
same,"kinase still bound, per cent of control",[2],16%
same,"kinase still bound, per cent of control",[3],8.8%
same,"kinase still bound, per cent of control",FRK (human),60%
same,"kinase still bound, per cent of control",GAK (human),57%
same,"kinase still bound, per cent of control",MAP2K2 (human),100%
same,"kinase still bound, per cent of control",MAP2K6 (human),100%
same,"kinase still bound, per cent of control",MAP2K7 (human),100%
same,"kinase still bound, per cent of control",MAP4K5 (human),8.1%
same,"kinase still bound, per cent of control",MAPK15 (human),79%
same,"kinase still bound, per cent of control",MAPKAPK5 (human),100%
same,"kinase still bound, per cent of control",MATK (human),97%
same,"kinase still bound, per cent of control",MET (human),84%
same,"kinase still bound, per cent of control",MYO3A (human),100%
same,"kinase still bound, per cent of control",NEK4 (human),86%
same,"kinase still bound, per cent of control",NEK9 (human),100%
same,"kinase still bound, per cent of control",OXSR1 (human),100%
same,"kinase still bound, per cent of control",PDGFRA (human),63%
same,"kinase still bound, per cent of control",[4],0.7%
same,"kinase still bound, per cent of control",PRKD2 (human),100%
same,"kinase still bound, per cent of control",PRPF4B (human),100%
same,"kinase still bound, per cent of control",RPS6KA5 KD1 (human),100%
same,"kinase still bound, per cent of control",SGK3 (human),100%
same,"kinase still bound, per cent of control",SNRK (human),60%
same,"kinase still bound, per cent of control",STK25 (human),84%
same,"kinase still bound, per cent of control",STK33 (human),90%
same,"kinase still bound, per cent of control",TESK1 (human),58%
same,"kinase still bound, per cent of control",TRPM6 (human),100%
same,"kinase still bound, per cent of control",WEE2 (human),100%
COC(=O)Nc1ccc(-c2nc(N3CCOCC3)c3cnn(C4CCN(C(=O)OC)CC4)c3n2)cc1,"kinase still bound, per cent of control",AKT3 (human),100%
same,"kinase still bound, per cent of control",[1],81%
same,"kinase still bound, per cent of control",BRSK2 (human),100%
same,"kinase still bound, per cent of control",CAMK1G (human),92%
same,"kinase still bound, per cent of control",CAMK2A (human),95%
same,per cent of control,CDK9 (human),100%
same,"kinase still bound, per cent of control",CHUK (human),63%
same,"kinase still bound, per cent of control",CLK3 (human),100%
same,"kinase still bound, per cent of control",CSNK1A1L (human),91%
same,"kinase still bound, per cent of control",EPHB3 (human),74%
same,"kinase still bound, per cent of control",ERBB3 (human),100%
same,"kinase still bound, per cent of control",FGFR4 (human),100%
same,"kinase still bound, per cent of control",[2],100%
same,"kinase still bound, per cent of control",[3],78%
same,"kinase still bound, per cent of control",FRK (human),99%
same,"kinase still bound, per cent of control",GAK (human),94%
same,"kinase still bound, per cent of control",MAP2K2 (human),100%
same,"kinase still bound, per cent of control",MAP2K6 (human),90%
same,"kinase still bound, per cent of control",MAP2K7 (human),100%
same,"kinase still bound, per cent of control",MAP4K5 (human),100%
same,"kinase still bound, per cent of control",MAPK15 (human),100%
same,"kinase still bound, per cent of control",MAPKAPK5 (human),100%
same,"kinase still bound, per cent of control",MATK (human),100%
same,"kinase still bound, per cent of control",MTOR (human),0%
same,"kinase still bound, per cent of control",MYO3A (human),100%
same,"kinase still bound, per cent of control",NEK4 (human),90%
same,"kinase still bound, per cent of control",NEK9 (human),98%
same,"kinase still bound, per cent of control",OXSR1 (human),90%
same,"kinase still bound, per cent of control",PDGFRA (human),92%
same,"kinase still bound, per cent of control",[4],3%
same,"kinase still bound, per cent of control",PRKD2 (human),100%
same,"kinase still bound, per cent of control",PRPF4B (human),100%
same,"kinase still bound, per cent of control",RPS6KA5 KD1 (human),100%
same,"kinase still bound, per cent of control",SGK3 (human),99%
same,"kinase still bound, per cent of control",SNRK (human),100%
same,"kinase still bound, per cent of control",STK25 (human),78%
same,"kinase still bound, per cent of control",STK33 (human),84%
same,"kinase still bound, per cent of control",TESK1 (human),91%
same,"kinase still bound, per cent of control",TRPM6 (human),100%
same,"kinase still bound, per cent of control",WEE2 (human),95%

# From the kinase profiling compilation of Christmann-Franck et al. (2016)
